Data set [1] deals with Monographella nivalis (Microdochium nivale). In words: Monographella nivalis (Microdochium nivale) / liquid culture (foot rot cereals). The class given is cell-based. Conditions: 96 h, read-out: control of Monographella nivalis.
In another data set the test system is Gaeumannomyces graminis. In words: Gaeumannomyces graminis / liquid culture (take-all of cereals). The class given is cell-based. The settings on record: read-out: control of Gaeumannomyces graminis.
The subject of data set [2] is Fusarium culmorum. In words: microbe, parasite or virus in culture. The class given is cell-based. Conditions: read-out: control of Fusarium culmorum.
Data set [3] concerns Glomerella lagenarium (Colletotrichum lagenarium). In words: Glomerella lagenarium (Colletotrichum lagenarium) / liquid culture (anthracnose). Conditions: Colletotrichum orbiculare; read-out: control of Glomerella lagenarium. The class given is cell-based.
Data set [4] relates to Botryotinia fuckeliana (Botrytis cinerea). In words: Botryotinia fuckeliana (Botrytis cinerea) / liquid culture (gray mould). The class given is cell-based. The settings on record: 72 h, read-out: control of Botryotinia fuckeliana.
Data set [5] relates to Mycosphaerella graminicola (Septoria tritici). In words: Mycosphaerella graminicola (Septoria tritici) / liquid culture (Septoria blotch). The class given is cell-based. The settings on record: Zymoseptoria tritici; read-out: control of Mycosphaerella graminicola.
For data set [6], the system named is Magnaporthe grisea (Pyricularia oryzae). In words: microbe, parasite or virus in culture. The class given is cell-based. The settings on record: 72 h, read-out: control of Magnaporthe grisea.
A further data set relates to Sclerotinia sclerotiorum. In words: Sclerotinia sclerotiorum / liquid culture (cottony rot). The settings on record: 72 h, read-out: control of Sclerotinia sclerotiorum.
Data set [7] concerns Fusarium culmorum. In words: whole plant or invertebrate. The class given is in vivo. Conditions: in Triticum aestivum, read-out: control of Fusarium culmorum.

What is called melting point is the temperature, or range, at which the solid turns liquid.

Method for Sclerotinia sclerotiorum: Sclerotinia sclerotiorum/Liquid Culture (Cottony Rot)
Mycelia fragments of a newly grown liquid culture of the fungus are directly mixed into nutrient broth (Vogels broth). After placing a (DMSO) solution of test compound into a microtiter plate (96-well format) the nutrient broth containing the fungal material is added. The test plates are incubated at 24° C. and the inhibition of growth is determined photometrically 3-4 days after application.

For the molecule `CC(C)(Cc1ccccc1F)NC(=O)c1cnc2ccccc2c1` [Compound E-2, N-[2-(2-fluorophenyl)-1,1-dimethyl-ethyl]quinoline-3-carboxamide], the inhibition of growth at 200 ppm (in data set [1]; in the data set with Gaeumannomyces graminis; in the data set with Fusarium culmorum [2]; in data set [3]; in [4]; in data set [5]) was not below 80% throughout.

`CC(C)CC(C)(Cc1ccccc1)NC(=O)c1cnc2c(F)cccc2c1` (centres unmarked) [Compound E-6, N-(1-benzyl-1,3-dimethyl-butyl)-8-fluoro-quinoline-3-carboxamide] gave a melting point of 110 to 112 °C. Moreover, in [1], the inhibition of growth at 200 ppm is not below 80%. Besides, in the data set on Gaeumannomyces graminis, the inhibition of growth at 200 ppm was not below 80%. Also, in the data set with Fusarium culmorum [2], the inhibition of growth at 200 ppm is not below 80%. Besides, the inhibition of growth at 200 ppm in data set [6] was not below 80%. Also, the inhibition of growth at 20 ppm in the data set with Sclerotinia sclerotiorum was not below 80%. Further, the inhibition of growth at 200 ppm in [3] was not below 80%. The inhibition of growth at 200 ppm in data set [4] is not below 80%. Further, the pest or weed control at 200 ppm in the data set on Fusarium culmorum [7] was not below 80%. Moreover, in data set [5], the inhibition of growth at 200 ppm is not below 80%.

With `CC(C)(C)CC(Cc1ccccc1)NC(=O)c1cnc2c(F)cccc2c1` (centres unmarked) [Compound E-28, N-(1-benzyl-3,3-dimethyl-butyl)-8-fluoro-quinoline-3-carboxamide], the melting point lay within 178 to 180 °C. Moreover, in data set [1], the inhibition of growth at 200 ppm was not below 80%. Besides, the inhibition of growth at 200 ppm with Gaeumannomyces graminis was not below 80%. Further, the inhibition of growth at 200 ppm with Fusarium culmorum [2] was not below 80%. Also, in data set [6], the inhibition of growth at 200 ppm is not below 80%. For the same molecule, the inhibition of growth at 20 ppm in the data set on Sclerotinia sclerotiorum was not below 80%. Further, in data set [3], the inhibition of growth at 200 ppm was not below 80%. Besides, the inhibition of growth at 200 ppm in data set [4] was not below 80%. Moreover, in the data set on Fusarium culmorum [7], the pest or weed control at 200 ppm is not below 80%.

The molecule `C=C(C)CC(C)(Cc1ccccc1)NC(=O)c1cnc2c(F)cccc2c1` (centres unmarked) [Compound E-35, N-(1-benzyl-1,3-dimethyl-but-3-enyl)-8-fluoro-quinoline-3-carboxamide] registered a melting point of 115 to 117 °C. For the same molecule, the inhibition of growth at 200 ppm in data set [1] is not below 80%. The inhibition of growth at 200 ppm in the data set on Gaeumannomyces graminis was not below 80%. The inhibition of growth at 200 ppm with Fusarium culmorum [2] was not below 80%. Besides, the inhibition of growth at 200 ppm in [6] is not below 80%. In the data set on Sclerotinia sclerotiorum, the inhibition of growth at 20 ppm is not below 80%. Also, the inhibition of growth at 200 ppm in data set [3] is not below 80%. Further, the inhibition of growth at 200 ppm in data set [4] was not below 80%. For the same molecule, the pest or weed control at 200 ppm in the data set on Fusarium culmorum [7] is not below 80%.

Molecule `C=C(C)CC(C)(Cc1ccccc1)NC(=O)c1cnc2c(F)c(F)ccc2c1` (centres unmarked) [Compound E-55, N-(1-benzyl-1,3-dimethyl-but-3-enyl)-7,8-difluoro-quinoline-3-carboxamide] registered a melting point of 94 to 96 °C. For the same molecule, the inhibition of growth at 200 ppm in data set [1] was not below 80%. In addition, the inhibition of growth at 200 ppm in the data set with Fusarium culmorum [2] is not below 80%. The inhibition of growth at 200 ppm in [6] was not below 80%. Besides, the inhibition of growth at 200 ppm in [3] was not below 80%. For the same molecule, the inhibition of growth at 200 ppm in [4] is not below 80%. Also, the pest or weed control at 200 ppm in the data set with Fusarium culmorum [7] was not below 80%. Also, the inhibition of growth at 200 ppm in data set [5] is not below 80%.

In the case of `CC(C)(O)CC(C)(Cc1ccccc1)NC(=O)c1cnc2c(F)cccc2c1` (centres unmarked) [Compound E-58, N-(1-benzyl-3-hydroxy-1,3-dimethyl-butyl)-8-fluoro-quinoline-3-carboxamide], the inhibition of growth at 200 ppm (in data set [1]; in the data set with Fusarium culmorum [2]; in [6]; in data set [3]; in data set [4]; in data set [5]) was not below 80% throughout. Also, the pest or weed control at 200 ppm in the data set with Fusarium culmorum [7] is not below 80%.

The molecule `Cc1cccc2cc(C(=O)NC(C)(Cc3ccccc3)CC(F)(F)F)cnc12` (centres unmarked) [Compound E-61, N-(1-benzyl-3,3,3-trifluoro-1-methyl-propyl)-8-methyl-quinoline-3-carboxamide] displayed a melting point of 120 to 123 °C. Further, in [1], the inhibition of growth at 200 ppm is not below 80%. Besides, the inhibition of growth at 200 ppm in the data set with Fusarium culmorum [2] was not below 80%. Further, the inhibition of growth at 200 ppm in [6] was not below 80%. The inhibition of growth at 200 ppm in [3] was not below 80%. Besides, in data set [4], the inhibition of growth at 200 ppm was not below 80%. Besides, the pest or weed control at 200 ppm in the data set with Fusarium culmorum [7] is not below 80%. In addition, in [5], the inhibition of growth at 200 ppm was not below 80%.

For the molecule `CC(C)C[C@@](C)(Cc1ccccc1)NC(=O)c1cnc2c(F)cccc2c1` [Compound F-2, N-[(1S)-1-benzyl-1,3-dimethyl-butyl]-8-fluoro-quinoline-3-carboxamide], the inhibition of growth at 200 ppm (in [1]; with Gaeumannomyces graminis; with Fusarium culmorum [2]; in [3]; in data set [4]; in [5]) was not below 80% each time. Moreover, the inhibition of growth at 20 ppm in the data set on Sclerotinia sclerotiorum was not below 80%. The pest or weed control at 200 ppm in the data set on Fusarium culmorum [7] is not below 80%.

With `CC(C)C[C@H](Cc1ccccc1)NC(=O)c1cnc2c(F)cccc2c1` [Compound F-3, N-[(1R)-1-benzyl-3-methyl-butyl]-8-fluoro-quinoline-3-carboxamide], the inhibition of growth at 200 ppm (with Gaeumannomyces graminis; with Fusarium culmorum [2]; in data set [3]; in data set [4]; in data set [5]) was not below 80% each time. The inhibition of growth at 20 ppm in the data set on Sclerotinia sclerotiorum is not below 80%. Besides, the pest or weed control at 200 ppm in the data set with Fusarium culmorum [7] is not below 80%.

Take `CC(C)C[C@@](C)(Cc1ccccc1)NC(=O)c1cnc2ccccc2c1` [Compound F-6, N-[(1S)-1-benzyl-1,3-dimethyl-butyl]quinoline-3-carboxamide]: the inhibition of growth at 200 ppm (in the data set with Gaeumannomyces graminis; in the data set on Fusarium culmorum [2]; in [3]; in data set [4]; in data set [5]) was not below 80% each time.

For `CC(C)(F)C[C@](C)(Cc1ccccc1)NC(=O)c1cnc2c(F)cccc2c1` [Compound F-24, N-[(1S)-1-benzyl-3-fluoro-1,3-dimethyl-butyl]-8-fluoro-quinoline-3-carboxamide], the inhibition of growth at 200 ppm (in data set [1]; in the data set on Fusarium culmorum [2]; in [3]; in data set [4]; in data set [5]) was not below 80% each time. Besides, the pest or weed control at 200 ppm in the data set with Fusarium culmorum [7] was not below 80%.

With `CC(F)(F)C[C@@](C)(Cc1ccccc1)NC(=O)c1cnc2ccccc2c1` [Compound F-26, N-[(1R)-1-benzyl-3,3-difluoro-1-methyl-butyl]quinoline-3-carboxamide], the inhibition of growth at 200 ppm (in [1]; in the data set on Fusarium culmorum [2]; in [3]; in [4]; in data set [5]) was not below 80% in each case. For the same molecule, the pest or weed control at 200 ppm with Fusarium culmorum [7] is not below 80%.

Source of the values: patent US10477864B2, “Microbiocidal quinoline (thio)carboxamide derivatives” (priority 2016, dated 2019).
